This note sets out measurements from ChEMBL document CHEMBL3751821, “The semi-synthesis of novel andrographolide analogues and anti-influenza virus activity evaluation of their derivatives” (Bioorg Med Chem Lett, 2016).

Data set [1] can be described thus: (§1) Cytotoxicity against MDCK cells after 72 hrs by MTT assay. Format: cell-based, Canis lupus familiaris. Particulars: dog, MDCK cells; read-out: TC50; call rule not given here. Background: Tetrazolium assays rely on reduction of a dye to a coloured formazan, in cell work by metabolically active cells.
The next data set relates to Influenza A virus H3N2. Put plainly: Antiviral activity against Influenza A virus H3N2 A3/JINGKE/30/95 infected in MDCK cells assessed as inhibition of virus-induced cytopathic effect after 72 hrs. Type of data set: functional, organism-based. (In general: Damage to the host cells serves as the signal in cytopathic effect assays.)
The next data set deals with MDCK. The description is as §1. Type of data set: cell-based, Canis lupus familiaris. Particulars: dog, mdck, 72 h.
Data set [2] in a line: Therapeutic index, ratio of TC50 for MDCK cells to IC50 for Influenza A virus H3N2 A3/JINGKE/30/95. Type of data set: cell-based. Particulars: dog, read-out: TI.
The mark [3] stands for this setting: Influenza A virus, A3/JINGKE/30/95, MDCK, 72 h, read-out: IC50.

Each structure is given as a SMILES string. In brackets after ≈: the same amount, converted by molar mass.

`C[C@@]1(CO)[C@H](O)CC[C@@]2(C)C(CCC3=CCOC3=O)=C(Cn3ccc(=O)[nH]c3=O)CC[C@H]12`: the CC50 at 72 h in data set [1] was over 200 µg/mL. Further, the IC50 result with Influenza A virus H3N2 (mdck) is on record as “Not Active”.
The matching figures for `C[C@@]1(CO)[C@H](O)CC[C@@]2(C)C(CCC3=CCOC3=O)=C(CNC34CC5CC(CC(C5)C3)C4)CC[C@H]12`: over 200 µg/mL and “Not Active”.
For `C[C@]1(CO)[C@H]2CC=C(Cn3ccc(=O)[nH]c3=O)[C@@H](CCC3=CCOC3=O)[C@]2(C)CC[C@H]1O`, the TC50 entry in the data set with MDCK is listed as “Non-toxic”. For the same compound, in the data set with Influenza A virus H3N2 (setting [3]), the IC50 came out at 192 µg/mL (≈ 431 µM).
With `C[C@]1(CO)[C@H]2CC=C(Cn3ccnc3)[C@@H](CCC3=CCOC3=O)[C@]2(C)CC[C@H]1O`, in data set [1], the CC50 at 72 h came to 212 µg/mL (≈ 529 µM). The half-maximal inhibitory concentration (IC50) in the data set with Influenza A virus H3N2 (setting [3]) amounted to 201 µg/mL (≈ 502 µM). The selectivity ratio in data set [2] was found to be 1.05.
The matching figures for `C[C@]1(CO)[C@H]2CC=C(Cn3cnc4ncnc(N)c43)[C@@H](CCC3=CCOC3=O)[C@]2(C)CC[C@H]1O`: 524 µg/mL (≈ 1120 µM), 192 µg/mL (≈ 411 µM) and 2.72.
Turning to `C[C@]1(CO)[C@H]2CC=C(Cn3cccn3)[C@@H](CCC3=CCOC3=O)[C@]2(C)CC[C@H]1O`, the CC50 at 72 h in data set [1] came to 122 µg/mL (≈ 305 µM). Moreover, the IC50 entry in the data set on Influenza A virus H3N2 (mdck) is “Not Active”.
As for `C[C@]1(CO)[C@H]2CC=C(Cn3cncn3)[C@@H](CCC3=CCOC3=O)[C@]2(C)CC[C@H]1O`, in the data set with MDCK, the TC50 result is “Non-toxic”. In addition, the IC50 entry in the data set with Influenza A virus H3N2 (mdck) is “Not Active”.
`C[C@@]1(CO)[C@H](O)CC[C@@]2(C)C(CCC3=CCOC3=O)=C(CN3CCOCC3)CC[C@H]12`: the CC50 at 72 h in data set [1] is over 200 µg/mL. Further, the IC50 result in the data set with Influenza A virus H3N2 (mdck) was “Not Active”.
For the compound `C[C@]1(CO)[C@H]2CC=C(Cn3ccc(N)nc3=O)[C@@H](CCC3=CCOC3=O)[C@]2(C)CC[C@H]1O`, the CC50 at 72 h in data set [1] stood at 491 µg/mL (≈ 1110 µM). Moreover, the IC50 with Influenza A virus H3N2 (setting [3]) is 186 µg/mL (≈ 419 µM). Moreover, the selectivity ratio in data set [2] was 2.64.
In the case of `C[C@]1(CO)[C@H]2CC=C(CN3CCOCC3)[C@@H](CCC3=CCOC3=O)[C@]2(C)CC[C@H]1O`, the TC50 result with MDCK is listed as “Non-toxic”. The IC50 entry with Influenza A virus H3N2 (mdck) is on record as “Not Active”.
Take `C[C@]1(CO)[C@H]2CC=C(CNCc3ccccc3)[C@@H](CCC3=CCOC3=O)[C@]2(C)CC[C@H]1O`: in data set [1], the CC50 at 72 h turned out to be 965 µg/mL (≈ 2190 µM). Further, in the data set on Influenza A virus H3N2 (setting [3]), the IC50 came out at 122 µg/mL (≈ 277 µM). The selectivity ratio in data set [2] turned out to be 7.91.
Turning to `Cc1cn(CC2=C(CCC3=CCOC3=O)[C@]3(C)CC[C@@H](O)[C@@](C)(CO)[C@H]3CC2)c(=O)[nH]c1=O`, in data set [1], the CC50 at 72 h was over 200 µg/mL. In addition, in the data set with Influenza A virus H3N2 (mdck), the IC50 entry is “Not Active”.
The matching figures for `C[C@@]1(CO)[C@H](O)CC[C@@]2(C)C(CCC3=CCOC3=O)=C(Cn3cncn3)CC[C@H]12`: over 200 µg/mL and “Not Active”.
Consider `Cc1cn(CC2=CC[C@@H]3[C@](C)(CO)[C@H](O)CC[C@@]3(C)[C@@H]2CCC2=CCOC2=O)c(=O)[nH]c1=O`, for which the TC50 result with MDCK was “Non-toxic”. Moreover, the IC50 in the data set with Influenza A virus H3N2 (setting [3]) is 201 µg/mL (≈ 438 µM).
On to `C[C@]1(CO)[C@H]2CC=C(CNC34CC5CC(CC(C5)C3)C4)[C@@H](CCC3=CCOC3=O)[C@]2(C)CC[C@H]1O`, for which the CC50 at 72 h in data set [1] is 2380 µg/mL (≈ 4910 µM). For the same compound, the IC50 in the data set with Influenza A virus H3N2 (setting [3]) stood at 161 µg/mL (≈ 332 µM). Besides, the selectivity ratio in data set [2] is 14.8.
In the case of `C[C@@]1(CO)[C@H](O)CC[C@@]2(C)C(CCC3=CCOC3=O)=C(Cn3ccnc3)CC[C@H]12`, in data set [1], the CC50 at 72 h is over 200 µg/mL. In addition, in the data set with Influenza A virus H3N2 (mdck), the IC50 entry was “Not Active”.
In the same order, the values of `C[C@@]1(CO)[C@H](O)CC[C@@]2(C)C(CCC3=CCOC3=O)=C(CNCc3ccccc3)CC[C@H]12` are over 200 µg/mL and “Not Active”.
Regarding `C[C@@]1(CO)[C@H](O)CC[C@@]2(C)C(CCC3=CCOC3=O)=C(Cn3ccc(N)nc3=O)CC[C@H]12`, the CC50 at 72 h in data set [1] is over 200 µg/mL. The IC50 entry with Influenza A virus H3N2 (mdck) is “Not Active”.
Regarding `C=C1CC[C@@H]2[C@](C)(CO)[C@H](O)CC[C@@]2(C)[C@@H]1CC(C1=CCOC1=O)S(=O)(=O)[O-].[Na+]` (some centres not stated), in data set [1], the CC50 at 72 h was determined as 2280 µg/mL. For the same compound, in the data set on Influenza A virus H3N2 (setting [3]), the 50% inhibitory concentration (IC50) is 176 µg/mL. For the same compound, in data set [2], the selectivity ratio is 12.9.
Consider `C[C@@]12CC[C@@H](O)[C@@](C)(CO)C1CCC(CO)=C2CCC1=CCOC1=O` (single isomer, unassigned), for which, in data set [1], the CC50 at 72 h was 124 µg/mL (≈ 355 µM). Further, the IC50 entry with Influenza A virus H3N2 (mdck) is listed as “Not Active”.
`C[C@]1(CO)C2CC=C(CO)[C@@H](CCC3=CCOC3=O)[C@]2(C)CC[C@H]1O` (single isomer, unassigned): the CC50 at 72 h in data set [1] worked out at 678 µg/mL (≈ 1940 µM). The IC50 with Influenza A virus H3N2 (setting [3]) worked out at 197 µg/mL (≈ 562 µM). Also, in data set [2], the selectivity ratio came out at 3.44.
In the same order, the values of `NC(=O)c1ncn([C@@H]2O[C@H](CO)[C@@H](O)[C@H]2O)n1` [RIBAVIRIN] are 3280 µg/mL (≈ 13400 µM), 87.7 µg/mL (≈ 359 µM) and 37.4.

In general, IC50 refers to the point on the concentration scale where inhibition reaches its midpoint.
